Biological target: T1, DGKA (Diacylglycerol kinase alpha) (Rattus norvegicus, UniProt P51556)
T1 construct: expressed in transfected cells; host or cells: HEK293T (SILAC HEK293T for LC-MS)
Assay: SILAC LC-MS ATP acyl phosphate probe competition, recombinant DGK-HEK293T lysates
Assay type: binding
Settings: ATP 1 mM, Ketanserin, Ritanserin 100 μM, RF001 1 mM; for SILAC ratio, DGKA C1 probe-modified peptide: site C1 (K237); for SILAC ratio, DGKA DAGKa probe-modified peptide: site DAGKa (K539); for SILAC ratio, DGKA DAGKc probe-modified peptide: site DAGKc (K377)
Experimental: All other vectors were gifted to Dr. Kevin Lynch (University of Virginia, School of Medicine) by Dr. Kaoru Goto (Yamagata University, School of Medicine) and Dr. Fumio Sakane (Chiba University) and were kindly shared with us: pcDNA3-FLAG-DGKA (rat), pCMV-Tag2B-FLAG-DGKQ (human), pcDNA3-DGKE-3×Flag (human), and pCMV-SPORT6-HA-DGKZ (human). HEK293T cells were plated at a concentration of 400,000 cells in complete DMEM and grown to 50-60% confluency. A polyethyleneimine (PEI) stock solution was prepared (1 mg/mL, pH 7.4) and filter sterilized. Serum-free DMEM (600 μL) was mixed gently with 2.6 μg DNA and 20 μL of sterile PEI (1 mg/mL, pH 7.4) in a sterile microfuge tube. Mixtures were incubated for 30 min at 25° C. The mixture was then added drop-wise to each 10 cm^2 plate, rocked back and forth to mix, and placed back in the incubator. Cell pellets were harvested after two full days of growth, snap-frozen in liquid N2, and stored at −80° C. until use. Recombinant proteins were produced by transient transfection in SILAC HEK293T cells using the procedure described above, except that cells were plated at a concentration of 1×10^6 cells per 10 cm^2 plate and grown to ˜70% confluency prior to introducing transfection mixture.
Proteomes were diluted to 2 mg/ml in kinase buffer. The light and heavy proteomes (0.5 mg, 250 μL total reaction volume) were pre-treated with vehicle or compound, respectively (5 μL, DMSO (light) or 50× stock in DMSO (heavy)), mixed gently, and incubated at 25° C. for 30 min. […] After incubation, matched light and heavy proteomes were transferred and mixed in a 1:1 ratio in a two-dram vial containing 4:1:3 MeOH/CHCl3/H2O (2 mL MeOH, 500 AL CHCl3, 1.5 mL H2O) for extraction of proteins to remove excess probe, quickly vortexed, and centrifuged at 1,400×g for 3 min to pellet protein. Organic and aqueous layers were removed using a Pasteur pipette, and the protein pellet was transferred to a screw-top tube in 600 μL MeOH. A second extraction was performed by adding CHCl3 (150 μL) and H2O (600 μL) to each sample, vortexed, and centrifuged at 1,400×g for 3 min to pellet protein. Organic and aqueous layers were removed by pipetting. MeOH added to pellet (600 μL) and pellets were re-suspended by sonication (3×1 sec pulse, 20% amplitude) for a final extraction. Samples were then centrifuged at 17,000×g for 5 min to pellet protein and MeOH was removed by pipetting. […] To desalt the samples, each was transferred to a two-dram glass vial, and to the vial 4:1:2 MeOH/CHCl3/H2O (2 mL MeOH, 500 AL CHCl3, 1 mL H2O) was added. The vials were vortexed quickly, spun at 1.400×g for 3 min to pellet protein, and aqueous and organic layers were removed using a Pasteur pipette. The resulting protein pellet was transferred to a screw-top tube in 600 μL MeOH, and then CHCl3 (150 μL) and HO (600 μL) were added to extract protein a second time. The samples were vortexed quickly, centrifuged at 1,400×g to pellet protein, and the aqueous and organic layers were removed by pipetting. Resulting protein pellet was suspended in MeOH (600 μL) via sonication (3×1 sec pulse, 20% amplitude), centrifuged at 17,000×g for 5 min to pellet protein, and MeOH removed by pipetting. Protein pellets were then re-suspended in 25 mM ammonium bicarbonate (500 μL) and digested with 7.5 μg Trypsin/Lys-C(Promega, 15 μL, 0.5 μg/μL) for 3 h at 37° C. Avidin-agarose beads (Thermo Scientific Pierce, 100 AL aliquot per sample) were washed three times by adding 10 mL DPBS, centrifuged at 1,400×g for 1 min, and decanting. This wash step was repeated for a total of 3 times. Digested protein samples were mixed with washed avidin beads (100 μL) and brought to a volume of 5.5 mL with DPBS in a 15 mL conical and rotated for 1 h to enrich samples for the covalent desthiobiotin modification. The beads were washed with 25 mM ammonium bicarbonate (3× with 10 mL, centrifuge at 1,400×g for 3 min, decant) and then H2O (3× with 10 mL, centrifuge at 1,400×g for 3 min, decant).

T1 sequence (P51556 whole entry): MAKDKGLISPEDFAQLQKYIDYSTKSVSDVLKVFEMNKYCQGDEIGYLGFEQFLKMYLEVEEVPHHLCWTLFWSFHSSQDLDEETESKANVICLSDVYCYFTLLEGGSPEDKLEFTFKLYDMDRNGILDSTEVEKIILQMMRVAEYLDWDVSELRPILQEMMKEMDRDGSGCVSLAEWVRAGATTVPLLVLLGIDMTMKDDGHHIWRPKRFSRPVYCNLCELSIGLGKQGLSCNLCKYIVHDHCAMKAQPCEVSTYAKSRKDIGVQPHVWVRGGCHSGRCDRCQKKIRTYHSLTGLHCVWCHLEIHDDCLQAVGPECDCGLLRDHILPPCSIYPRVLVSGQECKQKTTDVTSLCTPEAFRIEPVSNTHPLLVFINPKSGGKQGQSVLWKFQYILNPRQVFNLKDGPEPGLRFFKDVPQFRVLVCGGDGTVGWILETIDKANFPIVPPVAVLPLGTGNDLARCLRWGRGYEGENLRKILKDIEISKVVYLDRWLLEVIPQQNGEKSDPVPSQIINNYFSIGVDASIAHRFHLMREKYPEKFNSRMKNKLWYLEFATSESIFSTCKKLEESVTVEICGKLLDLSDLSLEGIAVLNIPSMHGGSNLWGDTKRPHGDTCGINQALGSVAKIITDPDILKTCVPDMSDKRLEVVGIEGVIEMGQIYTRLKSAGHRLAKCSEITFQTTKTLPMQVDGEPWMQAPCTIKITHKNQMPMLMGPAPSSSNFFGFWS

Structure (SMILES)	SILAC ratio, DGKA C1 probe-modified peptide	SILAC ratio, DGKA DAGKa probe-modified peptide	SILAC ratio, DGKA DAGKc probe-modified peptide
Cc1nc2sccn2c(=O)c1CCN1CCC(=C(c2ccc(F)cc2)c2ccc(F)cc2)CC1 [Ritanserin]	7.0	7.0	2.0
Fc1ccc(C(=C2CCNCC2)c2ccc(F)cc2)cc1 [RF001, 4-(Bis(4-fluorophenyl)methylene) piperidine]	12.6	9.1	1.7
O=C(c1ccc(F)cc1)C1CCN(CCn2c(=O)[nH]c3ccccc3c2=O)CC1 [Ketanserin]	1.4	1.3	1.2

Reference: patent US12643867B2, “Compositions and uses thereof” (University of Virginia Patent Foundation, priority 2017, dated 2026)
